ChEMBL document CHEMBL3868619, “Synthesis and biological assessment of novel N-(hydroxy/methoxy)alkyl β-enaminone curcuminoids” (Bioorg Med Chem Lett, 2016)
Converted amounts (≈) assume the structure as drawn.

Assays:
[1] = Antioxidant activity assessed as DPPH radical scavenging activity after 30 mins by spectrophotometric analysis; type: functional
[2] = Aqueous solubility of the compound in sodium phosphate buffer at pH 6.8 after 90 mins by shake flask method; type: physicochemical
[3] = Aqueous solubility of the compound in sodium phosphate buffer at pH 6.8 after 24 hrs by shake flask method; type: physicochemical
[4] = Cytotoxicity against human Caco2 cells assessed as decrease in cell viability after 48 hrs by MTT assay; type: functional, cell-based; details: Caco-2, 48 h
[5] = Cytotoxicity against human HepG2 cells assessed as decrease in cell viability after 48 hrs by MTT assay; type: functional, cell-based; details: HepG2, 48 h
[6] = Cytotoxicity against human HT-29 cells assessed as decrease in cell viability after 48 hrs by MTT assay; type: functional, cell-based; details: HT-29, 48 h
[7] = Cytotoxicity against CHOK1 cells assessed as decrease in cell viability after 48 hrs by MTT assay; type: toxicity, cell-based, Cricetulus griseus; details: Chinese hamster, CHO-K1 cells
[8] = Cytotoxicity against human EAhy926 cells assessed as decrease in cell viability after 48 hrs by MTT assay; type: toxicity, cell-based, EA.hy 926; details: EA.hy926 cells
Caco-2 [9] = assay: Induction of ROS generation in human Caco2 cells at 1 uM using DCFH-DA by fluorescence assay relative to control; type: functional
Caco-2 [10] = assay: Induction of ROS generation in human Caco2 cells at 10 uM using DCFH-DA by fluorescence assay relative to control; type: functional
HepG2 [11] = assay: Induction of ROS generation in human HepG2 cells at 1 uM using DCFH-DA by fluorescence assay relative to control; type: functional
HepG2 [12] = assay: Induction of ROS generation in human HepG2 cells at 10 uM using DCFH-DA by fluorescence assay relative to control; type: functional
HT-29 [13] = assay: Induction of ROS generation in human HT-29 cells at 1 uM using DCFH-DA by fluorescence assay relative to control; type: functional
HT-29 [14] = assay: Induction of ROS generation in human HT-29 cells at 10 uM using DCFH-DA by fluorescence assay relative to control; type: functional
[15] = Induction of ROS generation in CHOK1 cells at 1 uM using DCFH-DA by fluorescence assay relative to control; type: cell-based, Cricetulus griseus; details: chinese hamster, cho-k1, 1 µM
[16] = Induction of ROS generation in CHOK1 cells at 10 uM using DCFH-DA by fluorescence assay relative to control; type: cell-based, Cricetulus griseus; details: chinese hamster, cho-k1, 10 µM
EA.hy 926 [17] = assay: Induction of ROS generation in human EAhy926 cells at 1 uM using DCFH-DA by fluorescence assay relative to control; type: functional
EA.hy 926 [18] = assay: Induction of ROS generation in human EAhy926 cells at 10 uM using DCFH-DA by fluorescence assay relative to control; type: functional
[19] = Chemical stability of the compound sodium phosphate buffer at pH 6.8 after 24 hrs by LC-MS analysis; type: physicochemical; details: pH 6.8, 24 h

| SMILES | EC50 [1] [µM] | solubility thermodynamic at 1.5 h [2] [µM] | solubility thermodynamic at 24 h [3] [µM] | IC50 [4] [µM] | IC50 [5] [µM] | IC50 [6] [µM] | IC50 at 48 h [7] [µM] | IC50 at 48 h [8] [µM] | Activity (Caco-2 [9]) [%] | Activity (Caco-2 [10]) [%] | Activity (HepG2 [11]) [%] | Activity (HepG2 [12]) [%] | Activity (HT-29 [13]) [%] | Activity (HT-29 [14]) [%] | Activity [15] [%] | Activity [16] [%] | Activity (EA.hy 926 [17]) [%] | Activity (EA.hy 926 [18]) [%] | Stability [19] |
| --- | --- | --- | --- | --- | --- | --- | --- | --- | --- | --- | --- | --- | --- | --- | --- | --- | --- | --- | --- |
| Cc1c(C)c2c(c(C)c1O)CCC(C)(C(=O)O)O2 (stereo unspecified) [TROLOX] | 29.6 |  |  |  |  |  |  |  |  |  |  |  |  |  |  |  |  |  |  |
| COc1cc(/C=C/C(=O)CC(=O)/C=C/c2ccc(O)c(OC)c2)ccc1O [CURCUMIN] | 31.5 | 1.51 (≈ 0.556 µg/mL) | 1.25 (≈ 0.46 µg/mL) | 38.3 | 72.7 | 51.7 | 42 | 24.6 | 89.1 | 94.8 | 93.7 | 99.1 | 97.3 | 87.3 | 103.9 | 101 | 105.5 | 98.8 | Stable |
| COCCCN1C(/C=C/c2ccc(O)cc2)=CC(=O)CC1c1ccc(O)cc1 (stereo unspecified) | > 200 | 25.8 (≈ 9.8 µg/mL) | 38.8 (≈ 14.7 µg/mL) | > 100 | > 100 | > 100 | > 100 | > 100 | 99 | 99.4 | 93.2 | 96.2 | 90.5 | 74.7 | 97.8 | 91.7 | 116.4 | 118.6 | Stable |
| COc1cc(/C=C/C2=CC(=O)CC(c3ccc(O)c(OC)c3)N2CCCO)ccc1O (stereo unspecified) | 33.9 | 58.9 (≈ 25.1 µg/mL) | 62.9 (≈ 26.8 µg/mL) | 88 | > 100 | > 100 | > 100 | > 100 | 95.6 | 91 | 95.2 | 96.3 | 98.1 | 96.5 | 91.8 | 80.3 | 122 | 123.5 | Stable |
| O=C(/C=C/c1ccc(O)cc1)CC(=O)/C=C/c1ccc(O)cc1 [BISDEMETHOXYCURCUMIN] | > 200 | 3.18 (≈ 0.98 µg/mL) | 4.3 (≈ 1.33 µg/mL) | > 100 | > 100 | > 100 | 91.4 | 54.3 | 100.1 | 88.8 | 88.8 | 69.4 | 101.1 | 95.4 | 104.6 | 107.9 | 95.8 | 104.6 | Stable |
| O=C1C=C(/C=C/c2ccc(O)cc2)N(CCO)C(c2ccc(O)cc2)C1 (stereo unspecified) | 49.4 | 29.2 (≈ 10.3 µg/mL) | 29.9 (≈ 10.5 µg/mL) | > 100 | > 100 | > 100 | > 100 | > 100 | 95.3 | 91.5 | 105.4 | 100.1 | 100.8 | 98.8 | 99.4 | 87.6 | 106.9 | 101.4 | Stable |
